Experimental data: patent US11213031B2, “Tetrazolylpropyl derivatives and their use as fungicides” (BAYER AKTIENGESELLSCHAFT, priority 2017, dated 2022)
Like-named read-outs stand apart in the source and are kept apart here.

Columns and labels:
[1] = test system: Uromyces appendiculatus; experiment: In vivo preventive test on Uromyces appendiculatus (bean rust); conditions: 264 h, 500 ppm of active ingredient, bean plants sprayed 24 hours before inoculation, evaluated 11 days after inoculation, read-out: efficacy
Procedure: (§1) Solvent: 5% by volume of Dimethyl sulfoxide • 10% by volume of Acetone
(§2) Emulsifier: 1 μl of Tween® 80 per mg of active ingredient
(§3) The active ingredients were made soluble and homogenized in a mixture of Dimethyl sulfoxide/Acetone/Tween® 80 and then diluted in water to the desired concentration.
The young plants of bean were treated by spraying the active ingredient prepared as described above. Control plants were treated only with an aqueous solution of Acetone/Dimethyl sulfoxide/Tween® 80.
After 24 hours, the plants were contaminated by spraying the leaves with an aqueous suspension of Uromyces appendiculatus spores. The contaminated bean plants were incubated for 24 hours at 20° C. and at 100% relative humidity and then for 10 days at 20° C. and at 70-80% relative humidity.
The test was evaluated 11 days after the inoculation. 0% means an efficacy which corresponds to that of the control plants while an efficacy of 100% means that no disease was observed.

[2] = Log P by HPLC on reversed phase columns (EEC directive 79/831 Annex V.A8); format: physicochemical
Procedure: Measurement of Log P values was performed according to EEC directive 79/831 Annex V.A8 by HPLC (High Performance Liquid Chromatography) on reversed phase columns with the following methods: • ^[a]Log P value is determined by measurement of LC-UV, in an acidic range, with 0.1% formic acid in water and acetonitrile as eluent (linear gradient from 10% acetonitrile to 95% acetonitrile). • ^[b]Log P value is determined by measurement of LC-UV, in a neutral range, with 0.001 molar ammonium acetate solution in water and acetonitrile as eluent (linear gradient from 10% acetonitrile to 95% acetonitrile). • ^[c]Log P value is determined by measurement of LC-UV, in an acidic range, with 0.1% phosphoric acid and acetonitrile as eluent (linear gradient from 10% acetonitrile to 95% acetonitrile).
If more than one Log P value is available within the same method, all the values are given and separated by “+”.
Calibration was done with straight-chain alkan2-ones (with 3 to 16 carbon atoms) with known Log P values (measurement of Log P values using retention times with linear interpolation between successive alkanones). Lambda-max-values were determined using UV-spectra from 200 nm to 400 nm and the peak values of the chromatographic signals.

[3] = test system: Sphaerotheca fuliginea; experiment: In vivo preventive test on Sphaerotheca fuliginea (powdery mildew on cucurbits); conditions: Podosphaera fuliginea, 192 h; 500 ppm of active ingredient; gherkin plants sprayed 24 hours before inoculation; evaluated 8 days after inoculation; read-out: efficacy
Procedure: as §1, §2, §3
The young plants of gherkin were treated by spraying the active ingredient prepared as described above. Control plants were treated only with an aqueous solution of Acetone/Dimethyl sulfoxide/Tween® 80.
After 24 hours, the plants were contaminated by spraying the leaves with an aqueous suspension of Sphaerotheca fuliginea spores. The contaminated gherkin plants were incubated for 8 days at 20° C. and at 70-80% relative humidity.
The test was evaluated 8 days after the inoculation. 0% means an efficacy which corresponds to that of the control plants while an efficacy of 100% means that no disease was observed.

[4] = test system: Septoria tritici; experiment: In vivo preventive test on Septoria tritici (leaf spot on wheat); conditions: Zymoseptoria tritici, 456 h; 500 ppm of active ingredient; wheat plants sprayed 24 hours before inoculation; evaluated 19 days after inoculation; read-out: efficacy
Procedure: as §1, §2, §3
The young plants of wheat were treated by spraying the active ingredient prepared as described above. Control plants were treated only with an aqueous solution of Acetone/Dimethyl sulfoxide/Tween® 80.
After 24 hours, the plants were contaminated by spraying the leaves with an aqueous suspension of Septoria tritici spores. The contaminated wheat plants were incubated for 72 hours at 17° C. and at 100% relative humidity and then for 15 days at 20° C. and at 90% relative humidity.
The test was evaluated 19 days after the inoculation. 0% means an efficacy which corresponds to that of the control plants while an efficacy of 100% means that no disease was observed.

[5] = method [a]: LC-UV, acidic range, 0.1% formic acid in water and acetonitrile as eluent

| LogP [2] | Compound | pest or weed control at 500 ppm [1] | chromatographic logP [2, 5] | pest or weed control at 500 ppm [3] | pest or weed control at 500 ppm [4] | other results |
| --- | --- | --- | --- | --- | --- | --- |
|  | CC(c1ccccc1F)C(O)(Cn1cnnn1)C1(Cl)CC1 (single isomer, unassigned) [Ia-20, 2-(1-chlorocyclopropyl)-3-(2-fluorophenyl)-1-(tetrazol-1-yl)butan-2-ol] | 90 to 100% | 2.61 | 90 to 100% |  |  |
|  | CC(c1ccccc1F)C(O)(Cn1cnnn1)C1(Cl)CC1 (single isomer, unassigned) [Ia-22, 2-(1-chlorocyclopropyl)-3-(2-fluorophenyl)-1-(tetrazol-1-yl)butan-2-ol] |  |  |  | 90 to 100% | LogP [2, 5]: 2.80^[a] |
|  | OC(Cc1ccccc1)(Cn1cnnn1)C1(Cl)CC1 (stereo not drawn) [Ia-01, 2-(1-chlorocyclopropyl)-1-phenyl-3-(tetrazol-1-yl)propan-2-ol] | 90 to 100% | 2.41 | 90 to 100% | 70 to 79% |  |
|  | OC(Cc1cccnc1Cl)(Cn1cnnn1)C1(Cl)CC1 (stereo not drawn) [Ia-03, 2-(1-chlorocyclopropyl)-1-(2-chloro-3-pyridyl)-3-(tetrazol-1-yl)propan-2-ol] | 90 to 100% | 1.72 | 90 to 100% | 90 to 100% | chromatographic logP ([2]; method [b]: LC-UV, neutral range, 0.001 molar ammonium acetate solution in water and acetonitrile as eluent): 1.68 |
|  | OC(Cc1ccccc1F)(Cn1cnnn1)C1(Cl)CC1 (stereo not drawn) [Ia-04, 2-(1-chlorocyclopropyl)-1-(2-fluorophenyl)-3-(tetrazol-1-yl)propan-2-ol] | 90 to 100% | 2.46 | 90 to 100% | 90 to 100% |  |
|  | OC(Cc1ccccc1Cl)(Cn1cnnn1)C1(Cl)CC1 (stereo not drawn) [Ia-05, 2-(1-chlorocyclopropyl)-1-(2-chlorophenyl)-3-(tetrazol-1-yl)propan-2-ol] | 90 to 100% | 2.65 | 90 to 100% | 90 to 100% |  |
|  | C=C(c1ccccc1F)C(O)(Cn1cnnn1)C1(Cl)CC1 (stereo not drawn) [Ia-en-02, 2-(1-chlorocyclopropyl)-3-(2-fluorophenyl)-1-(tetrazol-1-yl)but-3-en-2-ol] | 90 to 100% | 2.46 | 90 to 100% | 90 to 100% |  |
|  | OC(Cc1ccccc1F)(Cn1ncnn1)C1(Cl)CC1 (stereo not drawn) [Ib-02, 2-(1-chlorocyclopropyl)-1-(2-fluorophenyl)-3-(tetrazol-2-yl)propan-2-ol] | 90 to 100% | 2.86 | 90 to 100% | 90 to 100% |  |
|  | OC(Cc1cccnc1Cl)(Cn1ncnn1)C1(Cl)CC1 (stereo not drawn) [Ib-05, 2-(1-chlorocyclopropyl)-1-(2-chloro-3-pyridyl)-3-(tetrazol-2-yl)propan-2-ol] | 70 to 79% | 2.03 | 90 to 100% | 90 to 100% |  |
| 3.09^[a] | OC(Cc1cc(F)c(F)cc1F)(Cn1ncnn1)C1(Cl)CC1 (stereo not drawn) [Ib-16] |  |  |  |  |  |
| 2.96^[a] | OC(Cc1ccc(F)cc1F)(Cn1ncnn1)C1(Cl)CC1 (stereo not drawn) [Ib-17] |  |  |  |  |  |
| 3.33^[a] | OC(Cc1ccc(F)c(Cl)c1)(Cn1ncnn1)C1(Cl)CC1 (stereo not drawn) [Ib-18] |  |  |  |  |  |
| 3.02^[a] | OC(Cc1c(F)ccc(F)c1F)(Cn1ncnn1)C1(Cl)CC1 (stereo not drawn) [Ib-19] |  |  |  |  |  |
| 2.86^[a] | COc1ccc(F)c(CC(O)(Cn2ncnn2)C2(Cl)CC2)c1F (stereo not drawn) [Ib-20] |  |  |  |  |  |
| 3.33^[a] | Cc1ccc(CC(O)(Cn2ncnn2)C2(Cl)CC2)c(F)c1F (stereo not drawn) [Ib-21] |  |  |  |  |  |
| 1.96^[b] | OC(Cc1ccncc1Cl)(Cn1ncnn1)C1(Cl)CC1 (stereo not drawn) [Ib-22] |  |  |  |  |  |
| 1.76^[a] | OC(Cc1cncc(F)c1)(Cn1ncnn1)C1(Cl)CC1 (stereo not drawn) [Ib-23] |  |  |  |  |  |
| 3.04^[a] | OC(Cc1ccc(F)c(F)c1)(Cn1ncnn1)C1(Cl)CC1 (stereo not drawn) [Ib-24] |  |  |  |  |  |
| 1.91^[a] | OC(Cc1cccnc1F)(Cn1ncnn1)C1(Cl)CC1 (stereo not drawn) [Ib-25] |  |  |  |  |  |
| 2.96^[a] | C=C(c1ccccc1F)C(O)(Cn1ncnn1)C1(Cl)CC1 (stereo not drawn) [Ib-en-01] |  |  |  |  |  |
|  | O=C(Cn1cnnn1)C1(Cl)CC1 [XVIa-01, 1-(1-chlorocyclopropyl)-2-(tetrazol-1-yl)ethanone] |  | 0.99 |  |  |  |
| 0.79^[a] | CC1(C(=O)Cn2cnnn2)CC1 [XVIa-02] |  |  |  |  |  |
| 0.59^[a] | O=C(Cn1cnnn1)C1(F)CC1 [XVIa-03] |  |  |  |  |  |
|  | O=C(Cn1ncnn1)C1(Cl)CC1 [XVIb-01, 1-(1-chlorocyclopropyl)-2-(tetrazol-2-yl)ethanone] |  | 1.3 |  |  |  |
| 1.05^[a] | CC1(C(=O)Cn2ncnn2)CC1 [XVIb-02] |  |  |  |  |  |
| 0.86^[a] | O=C(Cn1ncnn1)C1(F)CC1 [XVIb-03] |  |  |  |  |  |
